According to PubChem BioAssay AID1259407 (Chemical Carcinogenesis Research Information System (CCRIS), 2018):
Calls of active or inactive are those of the source. No rule for the calls is given here.

Tested on: CCRIS mutagenicity, Ames/micronucleus/aberration tests
Experiment: CCRIS mutagenicity studies
[1] = Test System: AMES SALMONELLA TYPHIMURIUM, Strain/Indicator: TA97, Metabolic Activation: NONE, Method: STANDARD PLATE
[2] = Test System: AMES SALMONELLA TYPHIMURIUM, Strain/Indicator: TA97, Metabolic Activation: RAT, LIVER, S-9, AROCLOR 1254, Method: STANDARD PLATE
[3] = Test System: AMES SALMONELLA TYPHIMURIUM, Strain/Indicator: TA98, Metabolic Activation: NONE, Method: STANDARD PLATE
[4] = Test System: AMES SALMONELLA TYPHIMURIUM, Strain/Indicator: TA98, Metabolic Activation: RAT, LIVER, S-9, AROCLOR 1254, Method: STANDARD PLATE
[5] = Test System: AMES SALMONELLA TYPHIMURIUM, Strain/Indicator: TA100, Metabolic Activation: NONE, Method: STANDARD PLATE
[6] = Test System: AMES SALMONELLA TYPHIMURIUM, Strain/Indicator: TA100, Metabolic Activation: RAT, LIVER, S-9, AROCLOR 1254, Method: STANDARD PLATE
[7] = Test System: AMES SALMONELLA TYPHIMURIUM, Strain/Indicator: TA102, Metabolic Activation: NONE, Method: STANDARD PLATE

Q: With `O=[N+]([O-])c1ccc2ccc3cc4c(c5ccc1c2c35)[C@H](O)[C@@H](O)C=C4` as the compound, how does the mutagenic call (Test System: AMES SALMONELLA TYPHIMURIUM, Strain/Indicator: TA98(1,8-DNP6), Metabolic Activation: NONE) read?
A: active; positive

Q: And the mutagenic call (Test System: AMES SALMONELLA TYPHIMURIUM, Strain/Indicator: TA98(1,8-DNP6), Metabolic Activation: RAT, LIVER, S-9, AROCLOR 1254)?
A: active; positive

Q: What about the mutagenic call (Test System: AMES SALMONELLA TYPHIMURIUM, Strain/Indicator: TA98(NR), Metabolic Activation: NONE) of the same compound?
A: active; positive

Q: And the mutagenic call (Test System: AMES SALMONELLA TYPHIMURIUM, Strain/Indicator: TA98(NR), Metabolic Activation: RAT, LIVER, S-9, AROCLOR 1254)?
A: active; positive

Q: And the mutagenic call (Test System: AMES SALMONELLA TYPHIMURIUM, Strain/Indicator: TA98, Metabolic Activation: NONE)?
A: active; positive

Q: What about the mutagenic call (Test System: AMES SALMONELLA TYPHIMURIUM, Strain/Indicator: TA98, Metabolic Activation: RAT, LIVER, S-9, AROCLOR 1254) of the same compound?
A: active; positive

Q: What about the mutagenic call (Test System: CHINESE HAMSTER OVARY, Strain/Indicator: CHO-K1-BH4 (HGPRT), Metabolic Activation: NONE) of the same compound?
A: inactive; negative

Q: What about the mutagenic call (Test System: CHINESE HAMSTER OVARY, Strain/Indicator: CHO-K1-BH4 (HGPRT), Metabolic Activation: RAT, LIVER, S-9, 3-METHYLCHOLANTHRENE) of the same compound?
A: inactive; negative

Q: How did the mutagenic call (Test System: E. COLI, Strain/Indicator: DG1153, Metabolic Activation: NONE, Method: FLUCTUATION TEST) turn out when `O=[N+]([O-])O.O=[N+]([O-])O.[Cd+2]` was run?
A: active; positive

Q: `CC1(C)CC[C@]2(C(=O)O)CC[C@]3(C)C(=CC[C@@H]4[C@@]5(C)C[C@H](O)[C@H](O)[C@@](C)(C(=O)O)[C@@H]5CC[C@]43C)[C@@H]2C1` was tested. Which mutagenic call [1] did it give?
A: inactive; negative

Q: What about the mutagenic call [2] of the same compound?
A: inactive; negative

Q: And the mutagenic call [3]?
A: inactive; negative

Q: What about the mutagenic call [4] of the same compound?
A: inactive; negative

Q: And the mutagenic call [5]?
A: inactive; negative

Q: What about the mutagenic call [6] of the same compound?
A: inactive; negative

Q: What about the mutagenic call [7] of the same compound?
A: inactive; negative

Q: And the mutagenic call (Test System: AMES SALMONELLA TYPHIMURIUM, Strain/Indicator: TA102, Metabolic Activation: RAT, LIVER, S-9, AROCLOR 1254, Method: STANDARD PLATE)?
A: inactive; negative

Q: `O=C(NO)OCc1ccccc1` was tested. Which mutagenic call (Test System: E. COLI, Strain/Indicator: WP2 UVRA, Metabolic Activation: NONE, Method: FLUCTUATION TEST) did it give?
A: active; positive

Q: With `Nc1ccc(Oc2ccc(Cl)cc2Cl)cc1` as the compound, how does the mutagenic call (Test System: AMES SALMONELLA TYPHIMURIUM, Strain/Indicator: TA98, Metabolic Activation: S-9, Method: STANDARD PLATE) read?
A: active; positive

Q: And the mutagenic call (Test System: AMES SALMONELLA TYPHIMURIUM, Strain/Indicator: TA100, Metabolic Activation: S-9, Method: STANDARD PLATE)?
A: active; positive

Q: What about the mutagenic call (Test System: AMES SALMONELLA TYPHIMURIUM, Strain/Indicator: YG1021, Metabolic Activation: S-9, Method: STANDARD PLATE) of the same compound?
A: active; positive

Q: And the mutagenic call (Test System: AMES SALMONELLA TYPHIMURIUM, Strain/Indicator: YG1024, Metabolic Activation: S-9, Method: STANDARD PLATE)?
A: active; positive

Q: What about the mutagenic call (Test System: AMES SALMONELLA TYPHIMURIUM, Strain/Indicator: YG1026, Metabolic Activation: S-9, Method: STANDARD PLATE) of the same compound?
A: active; positive

Q: What about the mutagenic call (Test System: AMES SALMONELLA TYPHIMURIUM, Strain/Indicator: YG1029, Metabolic Activation: S-9, Method: STANDARD PLATE) of the same compound?
A: active; positive

Q: What does the source list for `CN(C)Nc1nc(-c2ccc([N+](=O)[O-])o2)cs1`?
A: mutagenic call (Test System: AMES SALMONELLA TYPHIMURIUM, Strain/Indicator: TA100, Metabolic Activation: RAT, LIVER, S-9, KC500 OR PHENOBARBITAL, Method: LIQUID SUSPENSION): active; positive; mutagenic call (Test System: E. COLI WP2, Strain/Indicator: WP2, Metabolic Activation: NONE, Method: SPOT): active; positive

Q: With `C=C1[C@@H]2CC[C@H]3[C@]4(C)CCC[C@@](C)(C(=O)O)[C@H]4CC[C@]3(C2)[C@H]1O` as the compound, how does the mutagenic call (Test System: AMES SALMONELLA TYPHIMURIUM, Strain/Indicator: TM677, Metabolic Activation: RAT, LIVER, S-9, AROCLOR 1254, Method: PREINCUBATION) read?
A: inactive; negative

Q: How did the mutagenic call (Test System: CHINESE HAMSTER V-79, Strain/Indicator: V-79 (HPRT)/6-THIOGUANINE, Metabolic Activation: NONE, Method: STANDARD PLATE) turn out when `CCCCCc1ccco1` was run?
A: inactive; negative

Q: What about the mutagenic call (Test System: CHINESE HAMSTER V-79, Strain/Indicator: V-79 (HPRT)/6-THIOGUANINE, Metabolic Activation: RAT LIVER S-9, Method: STANDARD PLATE) of the same compound?
A: inactive; negative

Q: `Cc1ccc(OC(=O)N(C)N=O)cc1C` was tested. Which mutagenic call (Test System: E. COLI WP2, Strain/Indicator: WP2, Metabolic Activation: NONE, Method: STANDARD PLATE) did it give?
A: active; positive

Q: How did the mutagenic call (Test System: AMES SALMONELLA TYPHIMURIUM, Strain/Indicator: TA98, Metabolic Activation: NONE, Method: SPOT TEST) turn out when `CCC/C=C/C(=O)O[C@@H]1C(C)(C)C[C@@H]2C34CC3(C(C=O)=C[C@]12O)[C@@H](O)OC4=O` (some centres undefined) was run?
A: active; positive

Q: What about the mutagenic call [3] of the same compound?
A: active; positive

Q: What about the mutagenic call (Test System: AMES SALMONELLA TYPHIMURIUM, Strain/Indicator: TA100, Metabolic Activation: NONE, Method: SPOT TEST) of the same compound?
A: inactive; negative

Q: And the mutagenic call [5]?
A: active; positive

Q: And the mutagenic call (Test System: AMES SALMONELLA TYPHIMURIUM, Strain/Indicator: TA1535, Metabolic Activation: NONE, Method: SPOT TEST)?
A: inactive; negative

Q: What about the mutagenic call (Test System: AMES SALMONELLA TYPHIMURIUM, Strain/Indicator: TA1538, Metabolic Activation: NONE, Method: SPOT TEST) of the same compound?
A: inactive; negative

Q: What about the mutagenic call (Test System: AMES SALMONELLA TYPHIMURIUM, Strain/Indicator: TA2637, Metabolic Activation: NONE, Method: STANDARD PLATE) of the same compound?
A: active; positive

Q: Which mutagenic call (End Point: IN VITRO MICRONUCLEUS, Test System: HAMSTER V79 CELLS, Metabolic Activation: NONE) does the source give for `Clc1ccc(COC(Cn2ccnc2)c2ccc(Cl)cc2Cl)cc1` (centres undefined) here?
A: inactive; negative

Q: What about the mutagenic call (Test System: AMES SALMONELLA TYPHIMURIUM, Strain/Indicator: TA97, Metabolic Activation: HAMSTER, LIVER, S-9, AROCLOR 1254 (10 OR 30%), Method: PREINCUBATION) of the same compound?
A: inactive; negative

Q: What about the mutagenic call (Test System: AMES SALMONELLA TYPHIMURIUM, Strain/Indicator: TA97, Metabolic Activation: NONE, Method: PREINCUBATION) of the same compound?
A: inactive; negative

Q: What about the mutagenic call (Test System: AMES SALMONELLA TYPHIMURIUM, Strain/Indicator: TA97, Metabolic Activation: RAT, LIVER, S-9, AROCLOR 1254 (10 OR 30%), Method: PREINCUBATION) of the same compound?
A: inactive; negative

Q: What about the mutagenic call (Test System: AMES SALMONELLA TYPHIMURIUM, Strain/Indicator: TA98, Metabolic Activation: HAMSTER, LIVER, S-9, AROCLOR 1254 (10 OR 30%), Method: PREINCUBATION) of the same compound?
A: inactive; negative

Q: What about the mutagenic call (Test System: AMES SALMONELLA TYPHIMURIUM, Strain/Indicator: TA98, Metabolic Activation: NONE, Method: PREINCUBATION) of the same compound?
A: inactive; negative

Q: And the mutagenic call (Test System: AMES SALMONELLA TYPHIMURIUM, Strain/Indicator: TA98, Metabolic Activation: RAT, LIVER, S-9, AROCLOR 1254 (10 OR 30%), Method: PREINCUBATION)?
A: inactive; negative

Q: And the mutagenic call (Test System: AMES SALMONELLA TYPHIMURIUM, Strain/Indicator: TA100, Metabolic Activation: HAMSTER, LIVER, S-9, AROCLOR 1254 (10 OR 30%), Method: PREINCUBATION)?
A: inactive; negative

Q: What about the mutagenic call (Test System: AMES SALMONELLA TYPHIMURIUM, Strain/Indicator: TA100, Metabolic Activation: NONE, Method: PREINCUBATION) of the same compound?
A: inactive; negative

Q: And the mutagenic call (Test System: AMES SALMONELLA TYPHIMURIUM, Strain/Indicator: TA100, Metabolic Activation: RAT, LIVER, S-9, AROCLOR 1254 (10 OR 30%), Method: PREINCUBATION)?
A: inactive; negative

Q: What about the mutagenic call (Test System: AMES SALMONELLA TYPHIMURIUM, Strain/Indicator: TA1535, Metabolic Activation: HAMSTER, LIVER, S-9, AROCLOR 1254 (10 OR 30%), Method: PREINCUBATION) of the same compound?
A: inactive; negative

Q: What about the mutagenic call (Test System: AMES SALMONELLA TYPHIMURIUM, Strain/Indicator: TA1535, Metabolic Activation: NONE, Method: PREINCUBATION) of the same compound?
A: inactive; negative

Q: And the mutagenic call (Test System: AMES SALMONELLA TYPHIMURIUM, Strain/Indicator: TA1535, Metabolic Activation: RAT, LIVER, S-9, AROCLOR 1254 (10 OR 30%), Method: PREINCUBATION)?
A: inactive; negative

Q: How did the mutagenic call [7] turn out when `COc1cccc2c1C(=O)c1c(O)c3c(c(O)c1C2=O)C[C@@](O)(C(C)=O)C[C@@H]3O[C@@H]1C[C@@H](N(C)C)[C@@H](O)[C@@H](C)O1` was run?
A: active; positive

Q: How did the mutagenic call [1] turn out when `O=CN(O)c1ccc(Cl)c(Cl)c1` was run?
A: inactive; negative

Q: What about the mutagenic call [2] of the same compound?
A: inactive; negative

Q: And the mutagenic call [3]?
A: inactive; negative

Q: What about the mutagenic call [4] of the same compound?
A: inactive; negative

Q: And the mutagenic call [5]?
A: inactive; negative

Q: What about the mutagenic call [6] of the same compound?
A: inactive; negative

Q: And the mutagenic call (Test System: AMES SALMONELLA TYPHIMURIUM, Strain/Indicator: TA104, Metabolic Activation: NONE, Method: STANDARD PLATE)?
A: inactive; negative

Q: And the mutagenic call (Test System: AMES SALMONELLA TYPHIMURIUM, Strain/Indicator: TA104, Metabolic Activation: RAT, LIVER, S-9, AROCLOR 1254, Method: STANDARD PLATE)?
A: inactive; negative
